Results: patent US20240116985A1, “STAPLED PEPTIDES AND METHODS THEREOF” (priority 2020, published 2024)
pIC50: −log10 of the molar value. ≈ marks a conversion by molar mass, not a printed value. Where two headings read alike, the source gives them in different places.

Legend:
CHI Log D procedure = type: physicochemical; settings: for CHI Log D: pH 7.4; for chromatographic logD: pH 7.4, CHI Log D
[1] = target: T1, full-length beta-Catenin (Uniprot ID P35222) (Homo sapiens, UniProt P35222); assay: Fluorescence polarization IC50 (beta-catenin / 5FAM-TCF4 10-53 competition); type: binding
T1 construct: 10 nM full-length beta-Catenin (Uniprot ID P35222)
T1 sequence (P35222 1-781): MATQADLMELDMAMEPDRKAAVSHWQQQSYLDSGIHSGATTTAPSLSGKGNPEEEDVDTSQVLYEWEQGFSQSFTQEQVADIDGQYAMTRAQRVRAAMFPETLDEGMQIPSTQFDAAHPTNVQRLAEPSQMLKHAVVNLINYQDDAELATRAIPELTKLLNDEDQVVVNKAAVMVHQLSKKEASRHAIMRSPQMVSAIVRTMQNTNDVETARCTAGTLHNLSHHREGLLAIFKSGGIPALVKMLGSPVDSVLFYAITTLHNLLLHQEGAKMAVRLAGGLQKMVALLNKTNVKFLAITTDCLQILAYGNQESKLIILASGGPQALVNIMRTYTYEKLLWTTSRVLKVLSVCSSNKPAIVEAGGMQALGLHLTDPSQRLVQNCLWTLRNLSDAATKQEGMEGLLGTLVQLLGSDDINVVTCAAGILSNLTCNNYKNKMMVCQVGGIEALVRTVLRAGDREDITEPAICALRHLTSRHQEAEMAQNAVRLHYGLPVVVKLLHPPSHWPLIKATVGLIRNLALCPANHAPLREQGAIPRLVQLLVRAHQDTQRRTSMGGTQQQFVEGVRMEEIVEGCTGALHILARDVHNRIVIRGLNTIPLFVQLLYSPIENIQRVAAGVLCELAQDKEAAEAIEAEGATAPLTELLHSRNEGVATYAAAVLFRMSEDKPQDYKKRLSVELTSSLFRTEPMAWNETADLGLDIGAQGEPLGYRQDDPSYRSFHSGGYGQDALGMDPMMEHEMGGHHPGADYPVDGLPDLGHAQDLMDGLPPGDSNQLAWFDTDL

Solubility in PBS = type: physicochemical
Summary of the method: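 Steps: ultracentrifuge the peptide PBS solution, inject the supernatant on HPLC, inject a 50 μM peptide DMSO solution as reference, then calculate solubility as area ratio (PBS/DMSO) × 50 uM.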

[2] = fluorescence polarization, beta-catenin, read-out: FP EC50
[3] = fluorescence polarization, read-out: beta-Catenin FP IC50

Row | CHI Log D (CHI Log D procedure) | pIC50 [1, 2] | pIC50 [1, 3] | Solubility (Solubility in PBS) [µM] | chromatographic logD (CHI Log D procedure) | pIC50 ([1]; read-out: beta-Catenin FP IC50) | pIC50 ([1]; read-out: FP EC50) | Solubility (Solubility in PBS; Solubility (uM)) [µM] | pIC50 ([1]; Table E2-1, read-out: beta-Catenin FP IC50) | SMILES
1 | 2.587 | 5.47 | 5.47 | 10 (≈ 18.5 µg/mL) | – | – | – | – | – | CC(=O)N1CCC[C@]12CC=CCCCC1(CCCC=CCCCCCC[C@@](C)(C(=O)N[C@@H](Cc3ccccc3)C(=O)N[C@@H](Cc3csc4ccccc34)C(=O)N[C@@H](CCC(N)=O)C(N)=O)NC(=O)[C@H](C(C)C)NC(=O)[C@H](Cc3cccc(F)c3F)NC(=O)[C@H](C)NC(=O)[C@H](C)NC(=O)[C@H](CCC(=O)O)NC(=O)[C@H](CC(=O)O)NC1=O)NC(=O)[C@H](C)NC(=O)[C@H](CC(=O)O)NC2=O (stereo partly drawn) [I-390, Ac-PL3-Asp-Ala-B5-Asp-Glu-Ala-Ala-23FF-Val-S8-Phe-BztA-Gln-NH2]
2 | – | – | 5.43 | 50 (≈ 92.4 µg/mL) | 1.88 | – | – | – | – | CC(=O)N1CCC[C@]12CC=CCCCC1(CCCC=CCCCCCC[C@@](C)(C(=O)N[C@@H](Cc3cccc(F)c3)C(=O)N[C@@H](Cc3c[nH]c4ccccc34)C(=O)N[C@@H](CCC(N)=O)C(N)=O)NC(=O)[C@H](CCC(N)=O)NC(=O)[C@H](Cc3cccs3)NC(=O)[C@H](C)NC(=O)[C@H](C)NC(=O)[C@H](CCC(=O)O)NC(=O)[C@H](CC(=O)O)NC1=O)NC(=O)[C@H](C)NC(=O)[C@H](CC(=O)O)NC2=O (stereo partly drawn) [I-450, Ac-PL3-Asp-Ala-B5-Asp-Glu-Ala-Ala-2Thi-Gln-S8-3FF-Trp-Gln-NH2]
3 | 2.024 | 6.10 | – | 10 (≈ 19.2 µg/mL) | – | 6.10 | – | – | – | CC(=O)N1CCC[C@]12CC=CCCCC1(CCCC=CCCCOC(=O)N3CC[C@@](C(=O)N[C@@H](Cc4ccccc4Cl)C(=O)N[C@@H](Cc4csc5ccccc45)C(=O)N[C@@H](CO)C(N)=O)(C3)NC(=O)[C@H](CC(C)C)NC(=O)[C@H](Cc3ccccc3)NC(=O)[C@H](C)NC(=O)[C@H](C)NC(=O)[C@H](CCC(=O)O)NC(=O)[C@H](CC(=O)O)NC1=O)NC(=O)[C@H](CC(C)(C)C)NC(=O)[C@H](CC(=O)O)NC2=O (stereo partly drawn) [I-1066, Ac-PL3-Asp-Npg-B5-Asp-Glu-Ala-Ala-Phe-Leu-PyrS2-2C1F-BztA-Ser-NH2]
4 | 2.233 | – | 7.14 | 48 (≈ 91.2 µg/mL) | – | – | 7.14 | – | – | CC[C@H](C)[C@@H]1NC(=O)[C@H](CC(=O)O)NC(=O)[C@]2(CC=CCCCC3(CCCC=CCCCCCC[C@@](C)(C(=O)N[C@@H](Cc4ccccc4)C(=O)N[C@@H](Cc4csc5ccccc45)C(=O)N[C@@H](CCC(N)=O)C(N)=O)NC(=O)[C@H](CCC(N)=O)NC(=O)[C@H](Cc4ccccc4)NC(=O)[C@H](C)NC(=O)[C@H](CO)NC(=O)[C@H](CCC(=O)O)NC(=O)[C@H](CC(=O)O)NC3=O)NC1=O)CCCN2C(C)=O (stereo partly drawn) [I-652, Ac-PL3-Asp-Ile-B5-Asp-Glu-Ser-Ala-Phe-Gln-S8-Phe-BztA-Gln-NH2]
5 | – | – | 6.89 | – | 2.16 | – | – | 24 (≈ 43.8 µg/mL) | – | CC(=O)N1CCC[C@]12CC=CCCCC1(CCCC=CCCCCCC[C@@](C)(C(=O)N[C@@H](Cc3ccccc3)C(=O)N[C@@H](Cc3csc4ccccc34)C(=O)N[C@@H](Cc3c[nH]cn3)C(N)=O)NC(=O)[C@H]([C@@H](C)O)NC(=O)[C@H](Cc3ccccc3)NC(=O)[C@H](C)NC(=O)[C@H](C)NC(=O)[C@H](CCC(=O)O)NC(=O)[C@H](CC(=O)O)NC1=O)NC(=O)[C@H](C)NC(=O)[C@H](CC(=O)O)NC2=O (stereo partly drawn) [I-420, Ac-PL3-Asp-Ala-B5-Asp-Glu-Ala-Ala-Phe-Thr-S8-Phe-BztA-His-NH2]
6 | 3.103 | – | 7.22 | 47 (≈ 83.9 µg/mL) | – | – | 6.15 | – | – | CC(=O)N1CCC[C@]12CC=CCCCC1(CCCC=CCCCCCC[C@@](C)(C(=O)N[C@@H](Cc3ccccc3)C(=O)N[C@@H](Cc3csc4ccccc34)C(N)=O)NC(=O)[C@H](CCCNC(N)=O)NC(=O)[C@H](Cc3ccccc3)NC(=O)[C@H](C)NC(=O)[C@H](C)NC(=O)[C@H](CCC(=O)O)NC(=O)[C@H](CC(=O)O)NC1=O)NC(=O)[C@H](CC(C)C)NC(=O)[C@H](CC(=O)O)NC2=O (stereo partly drawn) [I-628, Ac-PL3-Asp-Leu-B5-Asp-Glu-Ala-Ala-Phe-Cit-S8-Phe-BztA-NH2]
7 | – | – | 7.10 | 50 (≈ 91.9 µg/mL) | 1.99 | – | – | – | – | CC(=O)N1CCC[C@]12CC=CCCCC1(CCCC=CCCCCCC[C@@](C)(C(=O)N[C@@H](Cc3ccccc3)C(=O)N[C@@H](Cc3csc4ccccc34)C(=O)N[C@@H](CCC(N)=O)C(N)=O)NC(=O)[C@H](CC(N)=O)NC(=O)[C@H](Cc3ccccc3)NC(=O)[C@H](C)NC(=O)[C@H](C)NC(=O)[C@H](Cc3nn[nH]n3)NC(=O)[C@H](CC(=O)O)NC1=O)NC(=O)[C@H](C)NC(=O)[C@H](CC(=O)O)NC2=O (stereo partly drawn) [I-444, Ac-PL3-Asp-Ala-B5-Asp-Tetz-Ala-Ala-Phe-Asn-S8-Phe-BztA-Gln-NH2]
8 | 2.457 | – | 7.56 | 35 (≈ 66.3 µg/mL) | – | – | 7.56 | – | – | CC[C@H](C)[C@@H]1NC(=O)[C@H](CC(=O)O)NC(=O)[C@]2(CC=CCCCC3(CCCC=CCCCCCC[C@@](C)(C(=O)N[C@@H](Cc4ccccc4OC)C(=O)N[C@@H](Cc4csc5ccccc45)C(=O)N[C@@H](Cc4c[nH]cn4)C(N)=O)NC(=O)[C@H](CC(N)=O)NC(=O)[C@H](Cc4ccccc4)NC(=O)[C@H](C)NC(=O)[C@H](C)NC(=O)[C@H](CC(=O)O)NC(=O)[C@H](CC(=O)O)NC3=O)NC1=O)CCCN2C(C)=O (stereo partly drawn) [I-554, Ac-PL3-Asp-Ile-B5-Asp-Asp-Ala-Ala-Phe-Asn-S8-2OMeF-BztA-His-NH2]
9 | 2.512 | – | 6.93 | 48 (≈ 89.1 µg/mL) | – | – | 6.93 | – | – | CC[C@H](C)[C@@H]1NC(=O)[C@H](CC(=O)O)NC(=O)[C@]2(CC=CCCCC3(CCCC=CCCCCCC[C@@](C)(C(=O)N[C@@H](Cc4ccccc4)C(=O)N[C@@H](Cc4csc5ccccc45)C(=O)N[C@H](C(N)=O)[C@@H](C)O)NC(=O)[C@H](CCC(N)=O)NC(=O)[C@H](Cc4ccccc4)NC(=O)[C@H](C)NC(=O)[C@H](C)NC(=O)[C@H](CCC(=O)O)NC(=O)[C@H](CC(=O)O)NC3=O)NC1=O)CCCN2C(C)=O (stereo partly drawn) [I-642, Ac-PL3-Asp-Ile-B5-Asp-Glu-Ala-Ala-Phe-Gln-S8-Phe-BztA-Thr-NH2]
10 | – | – | – | 10 (≈ 17.9 µg/mL) | 2.85 | 6.91 | – | – | – | CC(=O)N1CCC[C@]12CC=CCCCC1(CCCC=CCCCOC(=O)N3CC[C@@](C(=O)N[C@@H](Cc4ccsc4)C(=O)N[C@@H](Cc4csc5ccccc45)C(N)=O)(C3)NC(=O)[C@H](CC(N)=O)NC(=O)[C@H](Cc3ccccc3)NC(=O)[C@H](C)NC(=O)[C@H](C)NC(=O)[C@H](CC(C)C)NC(=O)[C@H](CC(=O)O)NC1=O)NC(=O)[C@H](CC(C)(C)C)NC(=O)[C@H](CC(=O)O)NC2=O (stereo partly drawn) [I-862, Ac-PL3-Asp-Npg-B5-Asp-Leu-Ala-Ala-Phe-Asn-PyrS2-3Thi-BztA-NH2]
11 | 1.928 | – | – | 46 (≈ 88.7 µg/mL) | – | 7.42 | 7.42 | – | – | CC(=O)N1CCC[C@]12CC=CCCCC1(CCCC=CCOC(=O)N(C)CCC[C@@](C)(C(=O)N[C@@H](Cc3ccsc3)C(=O)N[C@@H](Cc3csc4ccccc34)C(=O)N[C@@H](Cc3c[nH]cn3)C(N)=O)NC(=O)[C@H](CC(N)=O)NC(=O)[C@H](Cc3ccccc3)NC(=O)[C@H](C)NC(=O)[C@H](C)NC(=O)[C@H](CC(=O)O)NC(=O)[C@H](CC(=O)O)NC1=O)NC(=O)[C@H](CC(C)(C)C)NC(=O)[C@H](CC(=O)O)NC2=O (stereo partly drawn) [I-774, Ac-PL3-Asp-Npg-B5-Asp-Asp-Ala-Ala-Phe-Asn-SeN-3Thi-BztA-His-NH2]
12 | 2.453 | – | 6.64 | 45 (≈ 83.5 µg/mL) | – | – | 6.64 | – | – | CC(=O)N1CCC[C@]12CC=CCCCC1(CCCC=CCCCCCC[C@@](C)(C(=O)N[C@@H](Cc3ccccc3)C(=O)N[C@@H](Cc3csc4ccccc34)C(=O)N[C@@H](CCC(N)=O)C(N)=O)NC(=O)[C@H]([C@@H](C)O)NC(=O)[C@H](Cc3ccccc3)NC(=O)[C@H](C)NC(=O)[C@H](C)NC(=O)[C@H](CCC(=O)O)NC(=O)[C@H](CC(=O)O)NC1=O)NC(=O)[C@H](CC(C)C)NC(=O)[C@H](CC(=O)O)NC2=O (stereo partly drawn) [I-622, Ac-PL3-Asp-Leu-B5-Asp-Glu-Ala-Ala-Phe-Thr-S8-Phe-BztA-Gln-NH2]
13 | – | – | – | – | 1.97 | – | – | 34 (≈ 60.8 µg/mL) | 5.76 | CC(=O)N1CCC[C@]12CC=CCCCC1(CCCC=CCCCCCC[C@@](C)(C(=O)N[C@@H](Cc3ccccc3)C(=O)N[C@@H](Cc3c[nH]c4ccccc34)C(=O)N[C@@H](CCC(N)=O)C(N)=O)NC(=O)[C@H](C(C)C)NC(=O)[C@H](Cc3ccsc3)NC(=O)[C@H](C)NC(=O)[C@H](C)NC(=O)[C@H](CC(=O)O)NC(=O)[C@H](CC(=O)O)NC1=O)NC(=O)[C@H](C)NC(=O)[C@H](CC(=O)O)NC2=O (stereo partly drawn) [I-326, Ac-PL3-Asp-Ala-B5-Asp-Asp-Ala-Ala-3Thi-Val-S8-Phe-Trp-Gln-NH2]
